Measured values: patent publication US7625939B2, “Cyclopropyl-fused pyrrolidine derivatives as dipeptidyl peptidase IV inhibitors” (Probiodrug AG, priority 2005, dated 2009)

Legend:
Type in all cases: biochemical
Conditions in all cases: Gly-Pro-pNA 0.4 mM, HEPES pH 7.6, 30° C.
human recombinant DP9 = human recombinant DP9 (Homo sapiens, UniProt Q86TI2); assay: IC50 of DP9 inhibition, human recombinant enzyme (Gly-Pro-pNA substrate)
Procedure: (§1) 100 μl inhibitor stock solution were mixed with 100 μl buffer (HEPES pH 7.6) and 50 μl substrate (Gly-Pro-pNA, final concentration 0.4 mM) and preincubated at 30° C. Reaction was started by addition of 20 μl enzyme solution (either purified porcine DP IV, human recombinant DP IV, human recombinant DP II or human recombinant DP9). Formation of the product pNA was measured at 405 nm over 10 min using the HTS 7000Plus plate reader (Perkin Elmer) and slopes were calculated. The final inhibitor concentrations ranged between 1 mM and 30 nM.
(§2) For calculation of IC50-values GraFit 4.0.13 (Erithacus Software) was used.

human recombinant DP IV = human recombinant DP IV (Homo sapiens, UniProt P27487); assay: IC50 of DP IV inhibition, human recombinant enzyme (Gly-Pro-pNA substrate)
Procedure: as §1, §2

human recombinant DP II = human recombinant DP II (Homo sapiens, UniProt Q9UHL4); assay: IC50 of DP II inhibition, human recombinant enzyme (Gly-Pro-pNA substrate)
Procedure: as §1, §2

purified porcine DP IV = target: T1, purified porcine DP IV (Sus scrofa, UniProt P22411); assay: IC50 of DP IV inhibition, porcine kidney enzyme (Gly-Pro-pNA substrate)
T1 construct: purified porcine DP IV; from tissue; host or cells: porcine kidney
Procedure: as §1, §2

Sequence of human recombinant DP9 (Q86TI2 whole entry): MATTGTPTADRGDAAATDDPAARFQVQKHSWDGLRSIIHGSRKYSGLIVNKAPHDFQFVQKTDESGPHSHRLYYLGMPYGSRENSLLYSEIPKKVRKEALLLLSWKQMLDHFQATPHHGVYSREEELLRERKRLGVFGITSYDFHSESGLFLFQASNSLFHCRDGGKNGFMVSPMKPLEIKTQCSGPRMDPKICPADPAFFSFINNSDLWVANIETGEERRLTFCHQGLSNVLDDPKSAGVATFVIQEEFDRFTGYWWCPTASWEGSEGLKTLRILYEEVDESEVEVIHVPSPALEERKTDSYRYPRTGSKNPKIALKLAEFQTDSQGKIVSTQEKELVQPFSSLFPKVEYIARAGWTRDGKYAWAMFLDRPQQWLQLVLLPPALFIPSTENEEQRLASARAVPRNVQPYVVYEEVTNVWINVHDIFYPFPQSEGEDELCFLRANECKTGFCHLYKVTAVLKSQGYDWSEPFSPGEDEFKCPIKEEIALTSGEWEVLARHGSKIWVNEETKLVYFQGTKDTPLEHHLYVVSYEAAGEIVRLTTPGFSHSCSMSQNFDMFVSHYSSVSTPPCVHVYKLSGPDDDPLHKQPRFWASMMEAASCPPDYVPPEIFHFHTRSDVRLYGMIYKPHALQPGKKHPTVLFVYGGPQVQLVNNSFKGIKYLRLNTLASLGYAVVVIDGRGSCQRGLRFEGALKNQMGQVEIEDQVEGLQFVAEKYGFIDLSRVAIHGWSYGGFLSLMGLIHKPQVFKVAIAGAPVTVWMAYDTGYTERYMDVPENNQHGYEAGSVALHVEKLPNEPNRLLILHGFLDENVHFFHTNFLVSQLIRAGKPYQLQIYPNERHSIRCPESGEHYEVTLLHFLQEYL
T1 sequence (P22411 whole entry): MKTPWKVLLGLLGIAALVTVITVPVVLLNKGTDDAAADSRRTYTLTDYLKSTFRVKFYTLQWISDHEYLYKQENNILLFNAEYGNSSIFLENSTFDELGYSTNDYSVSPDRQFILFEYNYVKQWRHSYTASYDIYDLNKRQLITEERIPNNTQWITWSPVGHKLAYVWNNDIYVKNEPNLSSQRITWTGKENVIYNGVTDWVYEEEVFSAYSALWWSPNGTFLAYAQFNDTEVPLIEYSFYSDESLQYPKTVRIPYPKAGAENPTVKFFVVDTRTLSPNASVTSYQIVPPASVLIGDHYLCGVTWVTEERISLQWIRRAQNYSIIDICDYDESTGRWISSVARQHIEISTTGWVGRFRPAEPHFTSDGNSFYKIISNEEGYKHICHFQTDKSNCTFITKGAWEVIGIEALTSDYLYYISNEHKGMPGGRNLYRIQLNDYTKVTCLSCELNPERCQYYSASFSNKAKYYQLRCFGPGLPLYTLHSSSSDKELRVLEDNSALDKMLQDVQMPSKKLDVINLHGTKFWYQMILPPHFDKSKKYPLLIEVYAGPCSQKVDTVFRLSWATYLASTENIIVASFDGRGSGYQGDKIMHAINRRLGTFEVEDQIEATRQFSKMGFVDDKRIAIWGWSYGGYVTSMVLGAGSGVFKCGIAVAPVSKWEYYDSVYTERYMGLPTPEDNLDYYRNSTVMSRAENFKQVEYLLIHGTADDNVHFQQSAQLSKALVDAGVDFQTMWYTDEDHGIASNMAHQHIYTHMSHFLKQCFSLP
Sequence of human recombinant DP IV (P27487 whole entry): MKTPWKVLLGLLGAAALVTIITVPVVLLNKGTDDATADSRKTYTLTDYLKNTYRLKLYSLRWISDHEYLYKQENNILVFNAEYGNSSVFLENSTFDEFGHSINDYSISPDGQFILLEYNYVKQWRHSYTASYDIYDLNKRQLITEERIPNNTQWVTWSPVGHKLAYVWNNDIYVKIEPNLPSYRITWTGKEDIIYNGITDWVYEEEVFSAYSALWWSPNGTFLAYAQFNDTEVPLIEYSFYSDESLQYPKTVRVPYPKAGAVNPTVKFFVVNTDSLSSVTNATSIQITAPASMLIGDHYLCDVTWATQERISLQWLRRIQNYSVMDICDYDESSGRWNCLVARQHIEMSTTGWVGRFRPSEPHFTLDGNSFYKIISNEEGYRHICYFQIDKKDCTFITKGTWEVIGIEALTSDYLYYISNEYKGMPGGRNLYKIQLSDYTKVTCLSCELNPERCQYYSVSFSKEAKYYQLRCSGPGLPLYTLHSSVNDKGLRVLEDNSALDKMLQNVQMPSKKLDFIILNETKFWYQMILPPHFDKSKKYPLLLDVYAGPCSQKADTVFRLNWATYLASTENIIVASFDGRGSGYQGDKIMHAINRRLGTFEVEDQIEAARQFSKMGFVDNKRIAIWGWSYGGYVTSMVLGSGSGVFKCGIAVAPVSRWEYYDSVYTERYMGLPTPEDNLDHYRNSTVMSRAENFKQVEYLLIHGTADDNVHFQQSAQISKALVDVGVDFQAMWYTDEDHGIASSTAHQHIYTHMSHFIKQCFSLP

SMILES	IC50 (human recombinant DP9) [nM]	IC50 (human recombinant DP IV) [nM]	IC50 (human recombinant DP II) [nM]	IC50 (purified porcine DP IV) [nM]
CC(C)[C@H](N)C(=O)N1CC2CC2C1B(O)O (stereo partly drawn) [Example 1]	15.9	31.6	3820	3.53
CC(C)(C)[C@H](N)C(=O)N1CC2CC2C1B(O)O (stereo partly drawn) [Example 2]	18.4	75	21100	10.2
CC[C@H](C)[C@H](N)C(=O)N1CC2CC2C1B(O)O (stereo partly drawn) [Example 3]	10.8	45.1	1470	9.46
